For 136 molecules, pKa results are on record in the pKa sets of Baltruschat and Czodrowski (2020).

Where a SMILES comes first, the peptide text is derived from it. [ ]: non-standard residue; d: D form. pGlu = O=C1CC[C@@H](C(=O)O)N1

What is called pKa is the negative logarithm of the acid dissociation constant. Molecule `CCCC(=O)SCCN(C)C` came in with a pKa (basic group) of 8.32.
Same read-out and setting: the figure for `CC[C@H](C(=O)[O-])[C@H](CO)Cc1cncn1C` is 7.47.
Under “acidic group”, `Oc1ccccc1-c1cc2ccccc2cc1O` returned a pKa of 7.55.
The molecule `CCN(CC)CCC(C)=O` gave a pKa (basic group) of 9.25.
On the same count and under the same terms, the figure for `CCn1cnc2ccccc21` is 5.66.
On the same count and under the same terms, in the case of `Cc1ccncc1C` it was 6.53.
Regarding `Nc1ccc(S(=O)(=O)Nc2cncnc2)cc1`, the pKa is, setting by setting: (acidic group) 6.62; (basic group) 1.9.
The molecule `CNCCCN` gave a pKa (basic group) of 10.7.
The molecule `Nc1ccc(/N=N/c2ccccc2)cc1` gave a pKa (basic group) of 2.82.
The same measure, in the same setting: in the case of `CC(=O)N1CCN(C)CC1` it was 7.1.
Regarding `CC(P)C(=O)O` (centres undefined), under “acidic group”, the pKa was 4.15.
In turn, `Cc1ccccc1/C(N)=N/O` came in with a pKa (basic group) of 4.03.
Molecule `Cc1nc2cccc(N)c2n1C` gave a pKa (basic group) of 6.66.
Same read-out and setting: the figure for `CN1CCN(C)c2cccc3cccc1c23` is 4.62.
The same measure, in the same setting: the figure for `CCN(CCO)c1ccc(N)cc1` is 7.12.
Where the note is “acidic group”, `CC(=O)C(Cc1ccc(C#N)cc1)C(C)=O` came in with a pKa of 9.69.
`[NH3+]NC(=O)c1ccncc1` displayed a pKa (basic group) of 1.85.
Take `O=C1C[C@H]2C(=O)NC(=O)[C@H]2N1`: the pKa (acidic group) came to 8.15.
Same read-out and setting: the figure for `O=C(O)CSc1ccccc1[N+](=O)[O-]` is 3.18.
`O=C([O-])c1ccnc2ccccc12` gave a pKa (basic group) of 4.76.
With `C[N+](C)(C)c1ccc(O)c([N+](=O)[O-])c1`, the pKa (acidic group) turned out to be 5.03.
The same measure, in the same setting: the figure for `CCCCc1c(-c2ccccc2)nn(-c2ccccc2)c1O` is 7.2.
On the same count and under the same terms, in the case of `N#Cc1ccc(NS(=O)(=O)c2ccccc2)cc1` it was 6.78; in that of `O=C1CCc2cc([N+](=O)[O-])ccc2C1`, 10.1.
As to `Cc1cc(C)c(O)c(C(C)C)c1`, for the setting “acidic group”, the pKa was 11.2.
On the same count and under the same terms, the figure for `CCC[NH2+]CCS` is 7.92.
With `OCc1ccc(O)c(CO)c1`, under “acidic group”, the pKa came out at 9.77.
`Cc1cnc2c(O)cccc2c1` gave a pKa (acidic group) of 9.75 and a pKa (basic group) of 4.93.
On to `O=[N+]([O-])c1ccc2[nH]c(-c3cccs3)nc2c1`, for which, under “basic group”, the pKa was 2.36.
For the setting “acidic group”, `C[N+](C)(C)c1ccccc1O` displayed a pKa of 7.46.
For `COc1nccc(C)n1`, the pKa (basic group) turned out to be 2.1.
As for `C[C@H](NC(=O)[C@@H]1CCC(=O)N1)C(=O)O` ([pGlu]-Ala-OH), where the note is “acidic group”, the pKa was found to be 3.6.
The same measure, in the same setting: in the case of `Oc1ccc(O)[nH+]n1` it was -2.2.
`O=[N+]([O-])c1ccc([O-])c(CN2CCOCCOCCOCCOCC2)c1` showed a pKa (basic group) of 9.69.
As to `O=S(=O)([O-])c1cc(O)cc2cn[nH]c12`, the pKa (acidic group) was 9.65.
Molecule `Cc1cc(-c2ccccc2)nnc1NCC[NH+]1CCOCC1` registered a pKa (basic group) of 4.
Still for that read-out and setting: in the case of `COc1ccc(C(=N)c2ccccc2)c(OC)c1` it was 8.3.
Still for that read-out and setting: in the case of `NC[C@H]1CCCC[C@@H]1O` it was 10.2; in that of `Cc1ccnc([O-])n1`, 9.8.
Molecule `OCCN(CCO)CCc1nnn[nH]1` registered a pKa (basic group) of 9.2.
Regarding `CCCN(CC(C)O)CC(O)CC` (centres undefined), under “basic group”, the pKa worked out at 9.
In turn, `CSCc1cccc(CSC)n1` yielded a pKa (basic group) of 4.19.
Still for that read-out and setting: the figure for `Cc1cc(C)c2nc(C)cc(N)c2c1` is 10.4.
The molecule `O=C([O-])/C(=N/O)c1ccccc1` gave a pKa (acidic group) of 11.6.
Still for that read-out and setting: in the case of `O=C(O)c1[nH]c2ccccc2[nH+]1` it was 0.4.
Where the note is “basic group”, `C[C@H]([C@H](O)c1ccccc1)N(C)C` showed a pKa of 10.
Regarding `Cc1c(Cl)c([N+](=O)[O-])cc2c1nnn2O`, the pKa (acidic group) is 3.1.
Consider `CCCCCCCCCCCCN(CC(C)O)CC(C)O` (centres undefined), for which the pKa (basic group) stood at 7.8.
Molecule `O=C1Nc2ccccc2C1=O` showed a pKa (acidic group) of 11.9.
Where the note is “basic group”, `c1cc(-c2ccoc2)ccn1` gave a pKa of 5.72.
On to `O[n+]1ccc(OCc2ccccc2)cc1`, for which the pKa (acidic group) was determined as 1.99.
For `COCCN(C)C`, under “basic group”, the pKa amounted to 8.96.
The same measure, in the same setting: the figure for `CCCN(CCC)Cc1ccccc1O` is 8.3; for `CC(=O)c1ccc(N)cc1` it is 2.27; for `CC(C)N1C[Si](C)(C)O[Si](C)(C)C1` it is 10.
For the molecule `Cc1cc(C(=O)O)cc(C)[n+]1O`, the pKa (acidic group) was -0.01.
The same measure, in the same setting: in the case of `CC[N+](O)(CC)c1ccccc1` it was 4.53.
The same measure, in the same setting: the figure for `C/C(N=O)=N\O` is 5.8; for `COc1ccccc1C(=O)NO` it is 8.9.
For `Nc1cccc2c([N+](=O)[O-])cccc12`, the pKa (basic group) amounted to 2.8.
For the setting “basic group”, `N[C@H](C(=O)[O-])[C@H](O)C(=O)[O-]` returned a pKa of 8.75.
The same measure, in the same setting: in the case of `C(=C/c1ccncc1)/c1ccccc1` it was 5.77.
Under “basic group”, `CC[NH+](CC)CCCC(C)Nc1ccnc2ccccc12` (centres undefined) yielded a pKa of 8.81.
Where the note is “acidic group”, `O=C(NO)[C@@H]1[C@H](C(=O)NO)[C@@H]2CC[C@H]1O2` came in with a pKa of 9.3.
Same read-out and setting: in the case of `Sc1ccc(Cl)cc1` it was 5.82; in that of `C[n+]1cccc(/C=C(/O)c2ccccc2)c1`, 6.75.
For the setting “basic group”, `Cc1c[nH]c(C)n1` gave a pKa of 8.39.
The same measure, in the same setting: in the case of `C[NH2+]CCN(C)CCN` it was 9.68.
Consider `N#CC(C#N)=NNc1ccccc1[N+](=O)[O-]`, for which the pKa is 5.8 (acidic group) and -0.76 (basic group).
In turn, `Cc1cc(Cc2cc(O)ccc2C)c(O)c([N+](=O)[O-])c1` came in with a pKa (acidic group) of 7.93.
`CN(C)c1ccc(N2CCOCC2)cc1` came in with a pKa (basic group) of 5.7.
For the molecule `N#CC(C#N)C(C#N)C#N`, the pKa (acidic group) is 3.6.
As for `C[Si](C)(CC(=O)O)c1ccccc1`, under “acidic group”, the pKa worked out at 5.27.
As for `N#Cc1ccc(N)c2ccccc12`, for the setting “basic group”, the pKa was 1.2.
Molecule `Nc1cccc([N+](=O)[O-])c1` yielded a pKa (basic group) of 2.6.
On the same count and under the same terms, in the case of `CCCCN(C)N(C)CCCC` it was 7.16.
For `Nc1nc2ccccc2nc1N`, for the setting “basic group”, the pKa is 4.7.
As to `Nc1nc2cc3ccccc3cc2[nH]1`, the pKa is 12.8 (acidic group) and 7.01 (basic group).
`CCc1cc(Cl)c(OC)c(C(=O)NC[C@H]2CCCN2CC)c1[O-]` returned a pKa (basic group) of 9.77.
For the molecule `Cc1[nH]c(C(=O)[O-])c(C(=O)O)[nH+]1`, the pKa (acidic group) was found to be 4.54.
As to `CC[NH+](CC)CCCC(C)Nc1cc(OC)cc2ccc[nH+]c12` (centres undefined), where the note is “basic group”, the pKa is -1.33.
As to `Oc1cnc2ccccc2[nH+]1`, the pKa (acidic group) is -1.37.
For the molecule `Nc1ccc(O)cc1`, the pKa came out at 10.1 (acidic group) and 5.54 (basic group).
For `NC(=S)C(N)Cc1ccccc1` (centres undefined), the pKa (basic group) was 7.15.
The molecule `O=S(=O)([O-])c1ccc2c(/N=N/c3ccc4[nH]cnc4c3)c(O)c(S(=O)(=O)[O-])cc2c1` showed a pKa (acidic group) of 9.8.
Still for that read-out and setting: in the case of `Oc1ccc(Cl)cc1` it was 9.29.
Where the note is “basic group”, `CC(=O)NN=C1CCN(C)CC1` gave a pKa of 7.45.
Same read-out and setting: the figure for `NCCCCBr` is 10; for `CN(C)c1ccncc1` it is 9.7; for `CCNCC[NH2+]CC` it is 7.7.
As for `Nn1cnnc1`, the pKa is, setting by setting: (acidic group) 11.8; (basic group) 2.53.
`c1ccc(-c2ncc[nH]2)nc1` showed a pKa (basic group) of 5.46.
`O=C([O-])CCS` displayed a pKa (acidic group) of 10.3.
On to `NCCC(=O)NC(Cc1c[nH]cn1)C(=O)[O-]` (centres undefined), for which the pKa (basic group) is 9.48.
Turning to `NC(=O)NOCCC([NH3+])C(=O)O` (centres undefined), the pKa (acidic group) amounted to 2.5.
With `ClCCN1CCOCC1`, the pKa (basic group) came out at 6.27.
As to `O=c1[nH]cnc2[nH]ncc12`, the pKa (acidic group) came to 9.38.
For `Oc1ccc2c(cnc3ccccc32)c1`, the pKa (acidic group) was determined as 8.68 and the pKa (basic group) came out at 4.39.
With `CC(S)C(=O)[O-]` (centres undefined), the pKa (acidic group) worked out at 10.1.
`C[n+]1cnc2nc([O-])cnc2c1[O-]` came in with a pKa (basic group) of 6.19.
On the same count and under the same terms, the figure for `O=C([O-])C1CSCN1` (centres undefined) is 6.23; for `O=C([O-])C(CO)NCc1cc([N+](=O)[O-])ccc1[O-]` (centres undefined) it is 9.75.
The molecule `CC(=O)c1ccc(O)c([N+](=O)[O-])c1` showed a pKa (acidic group) of 5.09.
Still for that read-out and setting: the figure for `c1ccc(-c2c[nH]c(-c3ccccc3)n2)cc1` is 12.6.
Take `Cc1[nH+]c2cccc(N)c2n1C`: the pKa (basic group) amounted to 2.35.
The same measure, in the same setting: the figure for `CCOC(=O)c1ccc(N)cc1` is 2.58; for `O=C([O-])CCCCCN1CCCCC1` it is 10.5.
As for `O=C1C=CC(=O)c2c(O)cccc21`, where the note is “acidic group”, the pKa is 8.7.
In turn, `Cn1c(=O)c2c([O-])cnnc2n(C)c1=O` had a pKa (basic group) of 8.51.
`O=c1[nH]cc(SSc2c[nH]c(=O)[nH]c2=O)c(=O)[nH]1` returned a pKa (acidic group) of 8.
Same read-out and setting: the figure for `N#C/C(=N\O)C(N)=O` is 5.12.
Take `COc1ccc(-c2cn3ccnc3[nH]2)c(OC)c1`: the pKa (basic group) came to 6.76.
Still for that read-out and setting: the figure for `Cc1cc(CN)c(O)c(CN)c1` is 9.7.
On to `CCOC(=O)c1ccccc1-n1nc(O)cc1-c1ccccc1`, for which the pKa (acidic group) is 12.4.
The molecule `Cc1cc([O-])[n+](C)c([O-])n1` had a pKa (basic group) of 10.1.
On the same count and under the same terms, the figure for `C#CCCCCCN` is 10.6; for `CC1CNCCN1` (centres undefined) it is 9.9.
Turning to `Nc1ccc(S(=O)(=O)Nc2nccs2)cc1`, the pKa came to 7.25 (acidic group) and 2.35 (basic group).
Under “basic group”, `Nc1c2ccccc2nc2cccc([N+](=O)[O-])c12` registered a pKa of 7.3.
Turning to `[O-]c1[nH+]ccc2c1cnc1ccccc12`, the pKa (basic group) is 4.1.
The same measure, in the same setting: in the case of `Nc1ccc(-c2ncc(-c3ccccc3)o2)cc1` it was 3.01.
As to `CC(=O)Sc1ccc(O)cc1`, the pKa (acidic group) was found to be 8.88.
Still for that read-out and setting: in the case of `O=S(=O)(Nc1ccccc1)c1ccccc1` it was 8.22.
`CN(C)/C=N/c1ccccc1[N+](=O)[O-]` came in with a pKa (basic group) of 5.65.
Same read-out and setting: in the case of `O=C([O-])[C@H](NCCN[C@@H](C(=O)[O-])c1ccccc1[O-])c1ccccc1[O-]` it was 12.1; in that of `CC(C)CCNc1ncnc2[nH]ncc12`, 4.62.
In the case of `c1ccc(CSc2ccncc2)cc1`, the pKa (basic group) came out at 5.41.
The same measure, in the same setting: in the case of `CCN(CC)C(C)C(=O)Nc1c(C)cccc1C` (centres undefined) it was 8.11.
The same measure, in the same setting: in the case of `CCC(=O)C(CC(C)N1CCOCC1)(c1ccccc1)c1ccccc1` (centres undefined) it was 6.89.
Molecule `Cc1ccc(O)c(Cc2cc(C)cc([N+](=O)[O-])c2O)c1` displayed a pKa (acidic group) of 6.87.
Still for that read-out and setting: the figure for `Nc1nccc2c1[nH+]cn2CCOCP(=O)([O-])O` is 6.56; for `CC(C)(C#N)CC(=O)O` it is 4.04.
Regarding `CCN(CC)CCC(=O)Nc1c(C)cccc1C`, for the setting “basic group”, the pKa was determined as 8.96.
Take `Cc1cc[n+](O)cc1`: the pKa (acidic group) was found to be 1.29.
Regarding `OC(CS)CS`, the pKa (acidic group) was 9.17.
`OCCCc1ccncc1`: where the note is “basic group”, the pKa stood at 5.9.
